Assay results from patent publication US7098334B2 (Industrial Research Limited, priority 2002, dated 2006).

Tests used:
[1] = molecular target: MTAN (Escherichia coli, UniProt P0AF12); assay: Enzyme inhibition assay, MTAN (slow-onset inhibition constants); assay type: biochemical; settings: MTAN
Description: Ki as shown in Tables 1 and 2 is the initial inhibition constant formed by the enzyme-inhibitor complex, and Ki* is the equilibrium dissociation constant for inhibition that is observed following a period of slow-onset, tight binding inhibition. Ki* is the biologically effective constant.
Enzyme assays were conducted to assess the effectiveness of selected compounds of the invention as inhibitors of MTAP and MTAN.
Inhibitors.—Inhibitor concentrations were determined by the UV absorbance spectrum using the published millimolar extinction coefficients for 9-dazadenine of 8.5 at 275 nm at pH 7.0.
Assays.—The direct spectrophotometric assay for the conversion of MTA into adenine was measured as the decrease in absorbance at 274 nm. At 274 nm, Δε between MTA and adenine is at a maximum and produces a spectral change of 1.6 absorbance units/cm/mM (DeWolf, W. E. Jr., Fullin, F. A., and Schramm, V. L. (1979) J. Biol. Chem. 254, 10868–10875)
Slow-Onset Inhibition and Inhibition Constants.—The kinetics for slow onset inhibition and the Ki measurement was carried out by adding a known concentration of enzyme (1–5 nM) to a reaction mixture containing a substrate concentration of 200 μM. This concentration corresponds to an OD of 0.7–1.1 at […]. The formation of product was monitored as a decrease in absorbance at 274 nm. Conditions for Ki* determination used high concentrations of substrate. Two controls, one having no inhibitor and the other no enzyme were included in the experiment. The Ki values MTAP for the various compounds were calculated by fitting in the ratio of initial rates in the presence of inhibitor to without any inhibitor versus the inhibitor concentration, for the known Km and substrate concentration into the following expression.
Where Vo′ is the rate in the presence of inhibitor • Vo rate in the absence of inhibitor • [I] inhibitor concentration • And [S] is the substrate concentration
And the Ki* was calculated by fitting to the following expression
Where Vs′ is the steady-state rate following attainment of equilibrium in the presence inhibitor, and Vs is the steady-state rate in the control having no inhibitor. Both these equations are valid for competitive type inhibition.

[2] = tested on: Lewis lung carcinoma cells; assay: Radiation sensitizing effect on Lewis lung carcinoma cells; assay type: cell-based; settings: 5′-methylthio-ImmA at 2 μM; 10 Gy X-ray; cells counted by Trypan Blue after 48 hrs
Description: Lewis lung carcinoma cells (1×10^6) were plated and allowed to adhere overnight in 2 mL of DMEL medium substituted with 10% fetal bovine serum, 1% Pen-Strep, 2.5% Na-Pyruvate, 1% non-essential amino acids in 6 well plates. 50 μM MTA, 50 μM MTA+2 μM 5′-methylthio-ImmA or 2 μM 5′-methylthio-ImmA was then added in 1 mL of the same medium as indicated. Control wells were treated with medium without any additions. This treatment was allowed to continue for 6 hours. In each experiment one set of treated cells were subjected to 10 Gy of X-ray irradiation and a control set received no irridation. Both irradiated and unirradiated cells were then cultured for another 48 hours in the presence of MTA±5′-methylthio-ImmA. Manual counting of living and dead cells was done by Trypan Blue dye exclusion following 48 hrs of growth. (Approximate doubling time for Lewis Lung cells was 24 hours.)

[3] = molecular target: T1, mouse liver MTAP (Mus musculus, UniProt Q9CQ65); assay: MTAP activity in liver extracts of treated mice; assay type: in vivo
T1 construct: from tissue; host or cells: mouse liver protein extract
T1 sequence (Q9CQ65 1-283): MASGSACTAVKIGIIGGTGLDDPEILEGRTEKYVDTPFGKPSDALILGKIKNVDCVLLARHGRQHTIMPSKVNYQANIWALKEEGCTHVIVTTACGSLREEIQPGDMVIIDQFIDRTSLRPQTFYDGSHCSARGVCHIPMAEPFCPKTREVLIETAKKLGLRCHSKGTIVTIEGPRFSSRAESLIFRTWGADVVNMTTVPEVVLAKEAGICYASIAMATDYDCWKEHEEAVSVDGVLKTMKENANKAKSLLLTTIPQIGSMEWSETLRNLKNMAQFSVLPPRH
Description: Following 30 to 60 min, blood was collected or mice were sacrificed and the liver removed for tissue analysis. MTAP activity in mouse blood was measured by the conversion of radioactive MTA to radioactive 5-methylthio-α-D-ribose 1-phosphate (MTR-1P). The assay mixture contained 50 mM phosphate buffer, 1 mM dithiothreitol, 26 μM [5′-^14C]MTA with specific radioactivity of 2 μCi/μmole, 0.5% triton X-100, and the desired amount of tissue sample, in a total volume of 100 μL. Reactions were stopped at various times by the addition of perchloric acid to decrease the pH to 2.0. The protein precipitate was removed by centrifugation, and the supernatant was neutralized to near pH 7 before being placed on a charcoal column. The column was eluted with buffer near pH 7. The product MTR-1P elutes, while unreacted [5′-^14C]MTA remains on the column. The amount of MTAP activity from control and treated mice is compared.

[4] = oral administration of 10 μmoles

Chain of MTAN (P0AF12 whole entry): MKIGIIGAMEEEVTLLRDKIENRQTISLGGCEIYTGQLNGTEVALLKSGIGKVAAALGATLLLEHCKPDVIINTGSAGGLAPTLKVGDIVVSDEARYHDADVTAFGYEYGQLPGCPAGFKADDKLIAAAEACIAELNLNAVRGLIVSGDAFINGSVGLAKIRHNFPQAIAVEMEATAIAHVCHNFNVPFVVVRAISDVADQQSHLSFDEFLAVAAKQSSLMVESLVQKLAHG

## CSC[C@H]1N[C@@H](c2c[nH]c3c(N)ncnc23)C(O)[C@H]1O (some centres unmarked) [5′-methylthio-ImmA]
[1]; Ki*, equilibrium dissociation constant after slow-onset, tight binding inhibition
  Ki: 0.077 ± 0.02 nM
[1]; Ki, initial inhibition constant
  Ki: 0.13 ± 0.012 nM
[1]; equilibrium dissociation constant after slow-onset, tight binding inhibition
  Ki*: in the pM range
[2]
  effect on cell growth and irradiation damage (FIG. 2): acts in a similar manner to 50 μM MTA
[3]; intraperitoneal injection of 0.1 micromole
  reduction of MTAP activity of liver extract: 70%
[3]; intraperitoneal injection of 1.0 micromole
  reduction of MTAP activity of liver extract: 77%
[3]; intravenous injection
  MTAP activity in liver extracts (in words): no detectable MTAP activity
  inhibition of liver MTAP: > 95%
[3]; [4]
  inhibition of liver MTAP: 90%
  oral availability to MTAP inside tissues (in words): orally available
[3]; oral administration of 10 μmoles, control 1.0
  rate of conversion of MTA to products by MTAP in extracts of liver: 0.09 nMole/min/mg of liver protein extract
